Earlier results on two compounds are cited in patent publication US9661851B1, “Synergistic herbicidal composition and use thereof” (ROTAM AGROCHEM INTERNATIONAL COMPANY LIMITED, priority 2015, dated 2017).

The conditions of the series: hydrolysis in water, storage with moisture, in formulations; stated with reference to U.S. Ser. No. 14/957,768.

On to `COC(=O)c1ccc(CNS(C)(=O)=O)c(S(=O)(=O)NC(=O)Nc2nc(OC)cc(OC)n2)c1` [crystalline modification I of mesosulfuron-methyl] [methyl 2-[(4,6-dimethoxypyrimidin-2-ylcarbamoyl)sulfamoyl]-α-(methanesulfonamido)-p-toluate], for which the stability entry is listed as “improved stability”.

On to `COC(=O)c1ccc(CNS(C)(=O)=O)c(S(=O)(=O)NC(=O)Nc2nc(OC)cc(OC)n2)c1` [mesosulfuron-methyl in the amorphous state] [methyl 2-[(4,6-dimethoxypyrimidin-2-ylcarbamoyl)sulfamoyl]-α-(methanesulfonamido)-p-toluate], for which the stability entry is “highly unstable”.
